Source: ChEMBL document CHEMBL4433202, “Design and development of multitarget-directed N-Benzylpiperidine analogs as potential candidates for the treatment of Alzheimer's disease” (Eur J Med Chem, 2019)
Calls of active or inactive are those of the source. The calls are words filed in the database; no cut-off is given here.

Key:
[1] = target: Acetylcholinesterase (Homo sapiens, UniProt P22303); assay: Inhibition of human erythrocyte acetylcholinesterase using acetylthiocholine iodide as substrate pre-incubated for 10 mins followed by substrate addition and measured for 6 mins by Ellman's method
Sequence of Acetylcholinesterase (P22303 whole entry): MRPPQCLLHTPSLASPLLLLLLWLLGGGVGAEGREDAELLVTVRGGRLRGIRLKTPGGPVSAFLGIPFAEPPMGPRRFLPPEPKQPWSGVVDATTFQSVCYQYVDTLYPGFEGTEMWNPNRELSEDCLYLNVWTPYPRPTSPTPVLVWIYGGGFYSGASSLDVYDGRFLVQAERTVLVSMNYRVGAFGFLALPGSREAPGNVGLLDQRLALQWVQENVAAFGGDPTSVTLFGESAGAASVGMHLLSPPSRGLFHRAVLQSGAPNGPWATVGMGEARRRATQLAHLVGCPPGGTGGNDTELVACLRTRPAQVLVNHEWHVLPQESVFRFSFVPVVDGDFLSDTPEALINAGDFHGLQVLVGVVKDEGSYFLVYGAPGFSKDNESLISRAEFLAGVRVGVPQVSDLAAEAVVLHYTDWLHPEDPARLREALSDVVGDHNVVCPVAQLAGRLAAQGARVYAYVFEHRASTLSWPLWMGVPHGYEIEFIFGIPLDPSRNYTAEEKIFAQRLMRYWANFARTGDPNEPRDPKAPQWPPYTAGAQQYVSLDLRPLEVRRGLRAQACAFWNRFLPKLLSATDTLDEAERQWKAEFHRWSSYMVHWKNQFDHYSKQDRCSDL

[2] = target: Cholinesterase (Homo sapiens, UniProt P06276); assay: Inhibition of human serum butyrylcholinesterase using BTCI as substrate pre-incubated for 10 mins followed by substrate addition and measured for 6 mins by Ellman's method
Sequence of Cholinesterase (P06276 whole entry, the tested form may be a part): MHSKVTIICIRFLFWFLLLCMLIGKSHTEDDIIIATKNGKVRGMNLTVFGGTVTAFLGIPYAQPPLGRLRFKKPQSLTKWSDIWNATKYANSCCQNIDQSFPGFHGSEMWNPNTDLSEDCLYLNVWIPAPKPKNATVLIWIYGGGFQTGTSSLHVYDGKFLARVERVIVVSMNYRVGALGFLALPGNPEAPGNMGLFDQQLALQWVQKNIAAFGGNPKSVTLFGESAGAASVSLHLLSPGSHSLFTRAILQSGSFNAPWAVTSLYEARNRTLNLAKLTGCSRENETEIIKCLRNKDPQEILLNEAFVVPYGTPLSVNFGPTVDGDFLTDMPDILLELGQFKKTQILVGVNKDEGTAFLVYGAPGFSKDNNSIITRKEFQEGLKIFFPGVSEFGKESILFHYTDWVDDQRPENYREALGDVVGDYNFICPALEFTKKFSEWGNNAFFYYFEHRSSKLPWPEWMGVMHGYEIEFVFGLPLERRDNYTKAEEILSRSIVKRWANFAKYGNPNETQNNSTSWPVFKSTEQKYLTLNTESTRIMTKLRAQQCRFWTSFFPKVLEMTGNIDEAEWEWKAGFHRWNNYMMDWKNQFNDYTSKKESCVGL

[3] = target: Beta-secretase 1 (Homo sapiens, UniProt P56817); assay: Inhibition of human BACE1 using as 7-Methoxycoumarin-4-acetyl-[Asn670, Leu671]-Amyloid beta/A4 precursor protein 770 fragment 667-676-(2,4-dinitrophenyl) Lys-Arg-Arg amide trifluoroacetate salt as substrate incubated for 2 hrs by FRET based florescence assay
Sequence of Beta-secretase 1 (P56817 whole entry, the tested form may be a part): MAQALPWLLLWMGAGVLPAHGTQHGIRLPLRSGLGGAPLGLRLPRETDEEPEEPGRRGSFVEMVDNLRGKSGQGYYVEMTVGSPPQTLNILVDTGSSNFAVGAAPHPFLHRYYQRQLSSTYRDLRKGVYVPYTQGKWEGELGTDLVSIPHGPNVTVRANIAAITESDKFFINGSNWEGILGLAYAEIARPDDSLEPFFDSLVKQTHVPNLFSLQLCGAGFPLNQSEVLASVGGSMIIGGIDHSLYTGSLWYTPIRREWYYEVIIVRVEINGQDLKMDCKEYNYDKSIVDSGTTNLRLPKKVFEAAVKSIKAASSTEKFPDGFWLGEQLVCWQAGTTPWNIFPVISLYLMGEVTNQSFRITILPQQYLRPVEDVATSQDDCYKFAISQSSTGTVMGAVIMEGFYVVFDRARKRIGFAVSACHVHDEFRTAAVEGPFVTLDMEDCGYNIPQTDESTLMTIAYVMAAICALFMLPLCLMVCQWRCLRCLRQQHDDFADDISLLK

[4] = Permeability of the compound at 25 ug/ml after 18 hrs by PAMPA-BBB assay
[5] = test system: Rattus norvegicus; assay: Antioxidant activity Wistar rat model of scopolamine-induced amnesia assessed as reduction in MDA levels in brain homogenates at 10 mg/kg, po by TBARS assay; type: functional, organism-based
[6] = Cytotoxicity against human SH-SY5Y cells assessed as cell viability at 10 to 80 uM after 48 hrs by MTT assay relative to control; type: cell-based; settings: read-out: Activity
[7] = Acute toxicity in Wistar rat assessed as induction of abnormal reactions at 100 to 500 mg/kg, po measured up to 14 days; type: organism-based; settings: in vivo, 336 h
[8] = test system: Rattus norvegicus; assay: Reversal of scopolamine-induced spatial memory impairment in Wistar rat model of amnesia assessed as decrease in transfer latency at 2.5 to 10 mg/kg, po administered once daily for 1 week followed by scopolamine challenge 30 mins prior to test by elevated plus maze test; type: functional, organism-based
[9] = test system: Rattus norvegicus; assay: Reversal of scopolamine-induced spatial memory impairment in Wistar rat model of amnesia assessed as decrease in time spent on open arms at 2.5 to 10 mg/kg, po administered once daily for 1 week followed by scopolamine challenge 30 mins prior to test by elevated plus maze test; type: functional, organism-based
[10] = test system: Rattus norvegicus; assay: In-vivo inhibition of scopolamine-induced acetylcholinesterase activity in Wistar rat brain homogenates using acetylthiocholine iodide as substrate at 10 mg/kg, po and measured for 6 mins by Ellman's method; type: functional, organism-based
[11] = test system: Rattus norvegicus; assay: Antioxidant activity Wistar rat model of scopolamine-induced amnesia assessed as increase in SOD levels in brain homogenates at 10 mg/kg, po by NBT dye based assay; type: functional, organism-based
[12] = test system: Rattus norvegicus; assay: Effect on total arm entries in scopolamine-induced spatial memory impairment in Wistar rat model of amnesia at 10 mg/kg, po administered once daily for 1 week followed by scopolamine challenge 30 mins prior to test by Y-maze test relative to control; type: functional, organism-based
[13] = Acute toxicity in Wistar rat at 100 to 500 mg/kg, po measured up to 14 days; type: organism-based; settings: in vivo, 336 h

Compound	IC50 [1] [nM]	IC50 [2] [µM]	IC50 [3] [nM]	other results
Cc1ccc(/C=N/C2CCN(Cc3ccccc3)CC2)cc1	4400	> 30	19000	
Cc1cccc(/C=N/C2CCN(Cc3ccccc3)CC2)c1	> 15000	> 30	3300	
O=[N+]([O-])c1ccc(/C=N/C2CCN(Cc3ccccc3)CC2)cc1	900	7.3	730	Papp at 18 h, 25 ug/ml [4]: 4.99 ×10⁻⁶ cm/s
FC(F)(F)Oc1ccc(/C=N/C2CCN(Cc3ccccc3)CC2)cc1	1000	5.5	1800	
FC(F)(F)Oc1ccc(CNC2CCN(Cc3ccccc3)CC2)cc1	590	3.5	1400	
Fc1ccc(/C=N/C2CCN(Cc3ccccc3)CC2)cc1	2900	> 30	1500	
COc1cc(CNC2CCN(Cc3ccccc3)CC2)cc(OC)c1OC	2200	11	13000	
Clc1ccc(/C=N/C2CCN(Cc3ccccc3)CC2)c(Cl)c1	1300	5.8	3900	
O=[N+]([O-])c1ccc(CNC2CCN(Cc3ccccc3)CC2)cc1	720	7.8	430	Activity [5]: Active; Papp at 18 h, 25 ug/ml [4]: 4.41 ×10⁻⁶ cm/s; viability at 48 h, up to 80 µM [6]: 76.3 to 96.3%; Activity [7]: Non-Toxic; Activity [8]: Active; Activity [9]: Active; inhibition [10]: Active; Activity [11]: Active; Activity [12]: inactive; Activity [13]: Non-Toxic
Oc1ccccc1CNC1CCN(Cc2ccccc2)CC1	2400	14	2000	
Clc1ccc(CNC2CCN(Cc3ccccc3)CC2)c(Cl)c1	620	3.5	3000	
c1ccc(CNC2CCN(Cc3ccccc3)CC2)cc1	1700	12	2900	
Cc1cccc(CNC2CCN(Cc3ccccc3)CC2)c1	4100	> 30	2600	
COc1cc(/C=N/C2CCN(Cc3ccccc3)CC2)cc(OC)c1OC	> 15000	11	14000	
Oc1ccc(CNC2CCN(Cc3ccccc3)CC2)c(O)c1	2300	18	5900	
